The values that follow come from PMC9412994 (Pharmaceutics, 2022).

Read-outs that look alike come from different tables or passages of the source. Some results are limits rather than exact numbers.

The test system of data set [1] is P-gp. Put plainly: Brain PET imaging in rats at baseline and after P-gp inhibition with TQD. The data set is classed as in vivo. Particulars: brain/plasma, with tariquidar; rat; presence of P-gp inhibition (TQD); newly calculated from published PET data of ref 21, 24. The procedure: (§1) PET acquisitions were performed using an Inveon microPET scanner (Siemens, TN, USA). […] Radiotracers were diluted in saline to obtain at least <10% ethanol in the ready-to-inject preparation.
(§2) TQD was used to inhibit P-gp function in rats. TQD was injected in a volume of 200–300 µL into the caudal vein 15 min before radiotracer injection.
(§3) Images were reconstructed with the Fourier rebinning algorithm and the three-dimensional ordered-subset expectation-maximization algorithm, including normalization, attenuation, scatter, and random corrections. Image analysis and quantification of radioactivity uptake were performed using PMOD software (version 3.9; PMOD Technologies, Zurich, Switzerland). A region of interest was drawn over the whole brain to generate time-activity curves (TACs) with time frame durations of 0.25 min, 2 × 0.5 min, 0.75 min, 4 × 1 min, 1.5 min, 4 × 2 min, 3 × 2.5 min, 3 × 3 min, and 3.5 min. Brain radioactivity was corrected for ^11C decay and expressed as the standardized uptake value (SUV) after correction by injected dose and animal weight.
(§4) The mean AUCplasma 20–30 was obtained in each condition to estimate Kp,brain = AUCbrain 20–30/AUCplasma 20–30, considering the mean metabolite-corrected arterial input function. Kp,brain were compared with a two-way ANOVA and a Tukey’s post hoc test using Graphpad Prism software (V8.0, San Diego, CA, USA).

Test in data set [2]: as above
Format: in vivo. The conditions noted are these: rat. The procedure:
as §1, §2, §3, §4

On the set-up of data set [3]: method as in PMID 26585058, PMID 34496661. The conditions noted are these: rat; 8 mg/kg tariquidar versus baseline; cited from earlier work.
Data set [4] has as its target T1, human P-gp (Homo sapiens, UniProt P08183).
T1 construct: host or cells: MDCKII-MDR1 (stably transfected canine kidney cells)
The arrangement: method as in PMID 34496661. Particulars: cited from earlier work; for IC50: read-out: IC50 of TQD (P-gp inhibition).

The conditions of data set [5]: rat; 60 min post-injection; cited from earlier work.
For data set [6] the following is noted: rats, cited from earlier work.
For data set [7] the following is noted: cited from earlier work.
The subject of data set [8] is bovine brain capillary endothelial cells. The conditions noted are these: bovine brain capillary endothelial cells on filter inserts, co-culture with glial cells; cited from earlier work.
Data set [9] addresses T1, human P-gp. Particulars: MDCK-MDR1 cells, same origin; cited from earlier work.
The subject of the next data set is rodent P-gp. Set-up: method as in PMID 32856111. Particulars: LLC-PK1-Mdr1a cells; cited from earlier work.
For data set [10], the system named is P-gp. Particulars: cited from earlier work.
Data set [11] can be described thus: Arterial input function and plasma metabolism of the radiotracer in rats. The conditions noted are these: rat. The data set is classed as in vivo. The procedure:
Blood samples (50 µL) were collected at selected times from the femoral artery to establish total radioactivity kinetics in arterial plasma. Plasma was separated from whole blood by centrifugation (5 min, 2054 g, 4 °C), and 20 µL of plasma and whole blood were counted using a PET cross-calibrated gamma well counter (WIZARD2, PerkinElmer, Villebon-sur-Yvette, France) to obtain the whole-blood and plasma activity curves. All data were corrected for radioactive decay from the injection time. For the larger blood samples, 80 µL plasma was deproteinized with acetonitrile. The supernatant was injected in high-performance liquid chromatography, equipped with an Atlantis® T3 5 μm 10 × 250 mm column (Waters, Guyancourt, France) and an Atlantis® T3 5 μm 19 × 10 mm pre-column (Waters) with an LB-514 radioactivity flow detector (Berthold, France, MX Z100 cell). The mobile phase was composed of water containing 0.1% (v/v) TFA (solvent A) and acetonitrile containing 0.1% (v/v) TFA (solvent B) delivered in a gradient elution mode at a flow rate of 5 mL min^−1: solvent B increased linearly from 20 to 30% from 0 to 9 min.
The method for [^11C]metoclopramide metabolism has been previously reported.

Data set [12] addresses T1, human P-gp. Kind of data set: Uptake assay in P-gp overexpressing MDCKII-MDR1 cells with radiolabeled substrate and tariquidar. The data set is classed as cell-based. Particulars: [11C]domperidone as substrate, 30 min incubation, CI95% 198-248 nM, read-out: IC50 of TQD (P-gp inhibition).
Description: Culture media and buffers were obtained from Fischer Scientific, France. Stably transfected MDCKII-MDR1 cells were obtained from Dr. Alfred Schinkel (National Cancer Institute, Amsterdam, The Netherlands) and were grown under a controlled atmosphere at 37 °C, 5% CO2. The culture medium was composed of DMEM Glutamax (Dulbecco’s Modified Eagle Medium, 4.5 g/Ldextrose, 1 mM pyruvate) supplemented with 10% fetal bovine serum and 1% antibiotics (penicillin and streptomycin 5000 U/mL).
Cells were seeded in 24-well plates (30,000 cells per well) in a 500 μL culture medium. Cells were grown to confluence (~2 days). […] Then, 400 μL of cell lysate was collected from each well (n = 4 wells per condition) and gamma counted using a Cobra Quantum (Perkin-Elmer, Villebon-sur-Yvette, France).
Counting values obtained in each well were normalized using Equation (1):(1) I%=R−mRzero/mRmax×100 where I% is the extent of inhibition (I%) between 0 and 100%, R is the radioactivity in the 4 tested wells, mRzero is the mean of the 4 wells without TQD, and mRmax is the difference of means between the 4 wells containing the highest concentration of TQD (800 nM) and the 4 wells without TQD. […]

T1 sequence (P08183 whole entry): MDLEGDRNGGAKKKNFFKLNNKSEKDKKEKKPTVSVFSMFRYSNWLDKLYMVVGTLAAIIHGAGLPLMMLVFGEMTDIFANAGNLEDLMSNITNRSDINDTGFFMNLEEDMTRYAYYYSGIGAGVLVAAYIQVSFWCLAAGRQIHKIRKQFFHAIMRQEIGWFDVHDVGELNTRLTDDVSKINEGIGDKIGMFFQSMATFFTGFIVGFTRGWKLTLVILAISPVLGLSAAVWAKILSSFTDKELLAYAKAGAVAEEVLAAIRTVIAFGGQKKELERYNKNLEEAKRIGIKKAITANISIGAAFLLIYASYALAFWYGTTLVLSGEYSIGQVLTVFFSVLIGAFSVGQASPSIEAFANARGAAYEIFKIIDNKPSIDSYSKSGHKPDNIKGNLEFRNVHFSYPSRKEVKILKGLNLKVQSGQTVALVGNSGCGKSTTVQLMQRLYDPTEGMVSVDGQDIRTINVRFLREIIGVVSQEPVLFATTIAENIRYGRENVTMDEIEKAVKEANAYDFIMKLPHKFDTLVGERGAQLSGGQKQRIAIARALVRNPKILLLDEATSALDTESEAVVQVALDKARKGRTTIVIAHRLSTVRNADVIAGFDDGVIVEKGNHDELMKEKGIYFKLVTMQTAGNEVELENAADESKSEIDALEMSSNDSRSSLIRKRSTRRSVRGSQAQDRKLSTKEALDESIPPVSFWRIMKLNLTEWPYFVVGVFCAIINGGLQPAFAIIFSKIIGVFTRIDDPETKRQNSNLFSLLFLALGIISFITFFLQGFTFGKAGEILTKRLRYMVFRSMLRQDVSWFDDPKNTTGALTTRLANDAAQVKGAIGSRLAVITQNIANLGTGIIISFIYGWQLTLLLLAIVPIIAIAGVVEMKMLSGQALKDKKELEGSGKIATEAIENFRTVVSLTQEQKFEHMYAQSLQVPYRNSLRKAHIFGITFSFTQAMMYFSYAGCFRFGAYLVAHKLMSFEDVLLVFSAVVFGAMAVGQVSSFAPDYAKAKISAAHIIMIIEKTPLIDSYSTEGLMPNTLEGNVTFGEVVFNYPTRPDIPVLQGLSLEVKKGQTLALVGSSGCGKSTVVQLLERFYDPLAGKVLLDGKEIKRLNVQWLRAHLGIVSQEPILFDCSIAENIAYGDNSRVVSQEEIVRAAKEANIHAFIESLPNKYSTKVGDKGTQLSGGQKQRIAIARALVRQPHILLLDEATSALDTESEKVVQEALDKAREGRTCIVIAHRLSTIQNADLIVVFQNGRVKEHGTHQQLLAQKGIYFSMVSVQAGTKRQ

Turning to `CCN(CC)CCNC(=O)c1cc(Cl)c(N)cc1O[11CH3]` [[^11C]metoclopramide], the Kp is 47 ± 5.52 in the data set with P-gp [1] and 10.1 ± 2.01 in data set [2] (brain/plasma, absence of P-gp inhibition, newly calculated from published PET data of ref 21, 24). In addition, in data set [2] (baseline), the “Baseline brain exposure (AUCbrain), fold higher compared with [11C]domperidone” value is listed as 2.4 fold. Further, in data set [3], the “Maximal increase in brain exposure” value was 2.9 fold. The “Uptake ratio (intracellular radioactivity after complete P-gp inhibition / without inhibition)” value on human P-gp [4] (MDCKII-MDR1 cells, 200 nM TQD) is given as 1.4 ± 0.07. Further, the “Parent (unmetabolized) fraction in plasma” value in data set [5] was “could hardly be detected”.
In the case of `CCN(CC)CCNC(=O)c1cc(Cl)c(N)cc1OC` [Metoclopramide], the “Kp,uu,brain” value in [6] (another study) was 0.235. For the same compound, in [6] (ex vivo), the “Tissue/plasma ratio (Kp,brain)” value is given as 1.72. For the same compound, in [6], the “Kp,uu,brain” value is 2.4. For the same compound, in [7], the “Neurological side effects: Frequent” value was “extrapyramidal signs, parkinsonian syndrome, akathisia”; the “Neurological side effects: Not Frequent” value is listed as “dystonia, dyskinesia, altered consciousness”; the “Neurological side effects: Rare” value is reported as “convulsions”; the “Neurological side effects: Unspecified frequency” value is on record as “late dyskinesia, neuroleptic malignant syndrome”. In data set [7], the “Neurological side effects: Very Frequent” value is recorded as “sleepiness”. Moreover, in data set [8], the “Passage across in vitro BBB model compared with passage across the filter (no BBB)” value is 100%. Besides, the Efflux ratio at human P-gp [9] is recorded as 1.4. Further, in the data set on rodent P-gp, the Efflux ratio is reported as 1.6. The “Fold increase in Kp,brain in P-gp deficient mice compared with wild-type mice” value in the data set on P-gp [10] is listed as 6.6 fold.
`O=c1[nH]c2cc(Cl)ccc2n1C1CCN(CCCn2c3ccccc3[nH][11c]2=O)CC1` [[^11C]domperidone]: in data set [11] (60 min post-injection), the “Parent (unmetabolized) fraction in plasma” value was more than 30%. Moreover, the “Effect of TQD on the fraction of parent (unmetabolized) radiotracer in plasma” value in data set [11] (with versus without TQD) is “did not impact”.
Take `COc1cc2c(cc1OC)CN(CCc1ccc(NC(=O)c3cc(OC)c(OC)cc3NC(=O)c3cnc4ccccc4c3)cc1)CC2` [tariquidar, Tariquidar]: the IC50 at human P-gp [12] is 221 nM; on human P-gp [4] ([11C]N-desmethyl-loperramide as substrate probe, same experimental conditions), 19 nM; at human P-gp [4] ([11C]metoclopramide as substrate, MDCKII-MDR1 cells, CI95% 2-8 nM) it was 4 nM; at human P-gp [4] ([11C]verapamil as substrate probe, same experimental conditions), 45 nM.
